Reference: paper PMC4490784, “Compensatory induction of MYC expression by sustained CDK9 inhibition via a BRD4-dependent mechanism” (eLife, 2015)

Experiments:
Assay in all cases: KINOMEscan binding assay
TEC = target: T1, TEC (Homo sapiens, UniProt P42680); settings: read-out: % Retention on Solid Support
T1 construct: purchased DiscoveRx KINOMEscan
Description: (§1) As there are no commercial or in-house kinase assays available for CDK3, CDK5, CDK11 and CDK13, the inhibitory abilities of i-CDK9 toward these CDKs were thus evaluated in the DiscoveRx KINOMEscan assay, which is based on a proprietary active site-directed competition-binding platform ([Fabian et al., 2005]).
(§2) The inhibitory activity of i-CDK9 for CDK1-CycB (Upstate/Millipore), CDK2-CycA (Invitrogen), CDK4-CycD1 (Novartis), CDK7-CycH-MAT1 (Invitrogen), and CDK9-CycT1 (Invitrogen) was assessed in the AlphaScreen (PerkinElmer, Inc)-based kinase assay developed at Novartis. Briefly, each CDK–cyclin pair was pre-incubated with i-CDK9 for 15 min, followed by addition of kinase substrates (ELK for CDK1 and CDK2, RB for CDK4, and CDK7tide for CDK7 and CDK9). The mixture was incubated at room temperature for additional 4–5 hr. The reaction was stopped and read on Envision (PerkinElmer, Inc). Selectivity against a large panel of over 400 kinases was evaluated using the KINOMEscan platform (DiscoveRx, CA) employing a proprietary active site-directed competition binding assay ([Fabian et al., 2005]). The assay was conducted at two different concentrations of i-CDK9 (1 and 10 µM) by DiscoveRx.

MARK4 = target: T2, MARK4 (Homo sapiens, UniProt Q96L34)
T2 construct: purchased DiscoveRx KINOMEscan
Description: as §1, §2

LATS1 = target: T3, LATS1 (Homo sapiens, UniProt O95835); settings: read-out: % Retention on Solid Support
T3 construct: purchased DiscoveRx KINOMEscan
Description: as §1, §2

YANK1 = target: T4, YANK1 (Homo sapiens, UniProt Q8WU08); settings: 1 µM i-CDK9; read-out: % Retention on Solid Support
T4 construct: purchased DiscoveRx KINOMEscan
Description: as §1, §2

CSNK1A1L = target: T5, CSNK1A1L (Homo sapiens, UniProt Q8N752); settings: read-out: % Retention on Solid Support
T5 construct: purchased DiscoveRx KINOMEscan
Description: as §1, §2

TNNI3K = target: T6, TNNI3K (Homo sapiens, UniProt Q59H18); settings: read-out: % Retention on Solid Support
T6 construct: purchased DiscoveRx KINOMEscan
Description: as §1, §2

PCTK2 = target: T7, PCTK2 (Homo sapiens, UniProt Q00537); settings: read-out: % Retention on Solid Support
T7 construct: purchased DiscoveRx KINOMEscan
Description: as §1, §2

CAMK4 = target: T8, CAMK4 (Homo sapiens, UniProt Q16566); settings: read-out: % Retention on Solid Support
T8 construct: purchased DiscoveRx KINOMEscan
Description: as §1, §2

MAPKAPK5 = target: T9, MAPKAPK5 (Homo sapiens, UniProt Q8IW41); settings: read-out: % Retention on Solid Support
T9 construct: purchased DiscoveRx KINOMEscan
T9 sequence (Q8IW41 1-473): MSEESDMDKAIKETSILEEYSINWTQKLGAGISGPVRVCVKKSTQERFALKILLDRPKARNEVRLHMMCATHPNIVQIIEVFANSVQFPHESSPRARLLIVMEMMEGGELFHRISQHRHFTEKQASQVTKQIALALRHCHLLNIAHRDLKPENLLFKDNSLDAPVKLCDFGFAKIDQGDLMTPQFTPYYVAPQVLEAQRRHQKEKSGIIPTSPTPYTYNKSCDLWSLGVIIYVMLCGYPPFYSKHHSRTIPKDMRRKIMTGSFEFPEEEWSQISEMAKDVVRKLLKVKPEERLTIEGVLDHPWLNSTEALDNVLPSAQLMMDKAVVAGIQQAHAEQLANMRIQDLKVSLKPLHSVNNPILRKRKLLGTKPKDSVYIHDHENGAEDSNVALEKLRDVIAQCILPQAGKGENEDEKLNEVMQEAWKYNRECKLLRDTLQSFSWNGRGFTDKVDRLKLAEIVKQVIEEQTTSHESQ
Description: as §1, §2

[1] = target: RPS6KA4(Kin.Dom.2-C-terminal) (Homo sapiens, UniProt O75676); settings: read-out: % Retention on Solid Support
Description: as §1, §2

MELK = target: T10, MELK (Homo sapiens, UniProt Q14680); settings: read-out: % Retention on Solid Support
T10 construct: purchased DiscoveRx KINOMEscan
Description: as §1, §2

JNK1 = target: T11, JNK1 (Homo sapiens, UniProt P45983)
T11 construct: purchased DiscoveRx KINOMEscan
Description: as §1, §2

AXL = target: T12, AXL (Homo sapiens, UniProt P30530); settings: read-out: % Retention on Solid Support
T12 construct: purchased DiscoveRx KINOMEscan
Description: as §1, §2

MARK3 = target: T13, MARK3 (Homo sapiens, UniProt P27448); settings: read-out: % Retention on Solid Support
T13 construct: purchased DiscoveRx KINOMEscan
Description: as §1, §2

TLK1 = target: T14, TLK1 (Homo sapiens, UniProt Q9UKI8); settings: read-out: % Retention on Solid Support
T14 construct: purchased DiscoveRx KINOMEscan
Description: as §1, §2

PRKCI = target: T15, PRKCI (Homo sapiens, UniProt P41743); settings: 1 µM i-CDK9; read-out: % Retention on Solid Support
T15 construct: purchased DiscoveRx KINOMEscan
Description: as §1, §2

[2] = target: T16, ABL1(H396P)-phosphorylated (Homo sapiens, UniProt P00519, H396P); settings: 1 µM i-CDK9; read-out: % Retention on Solid Support
T16 construct: purchased DiscoveRx KINOMEscan
Description: as §1, §2

PFTAIRE2 = target: T17, PFTAIRE2 (Homo sapiens, UniProt Q96Q40); settings: read-out: % Retention on Solid Support
T17 construct: purchased DiscoveRx KINOMEscan
Description: as §1, §2

[3] = target: RPS6KA5(Kin.Dom.2-C-terminal) (Homo sapiens, UniProt O75582); settings: read-out: % Retention on Solid Support
Description: as §1, §2

BMPR2 = target: T18, BMPR2 (Homo sapiens, UniProt Q13873)
T18 construct: purchased DiscoveRx KINOMEscan
Description: as §1, §2

KIT(V559D) = target: T19, KIT(V559D) (Homo sapiens, UniProt P10721, V559D); settings: read-out: % Retention on Solid Support
T19 construct: purchased DiscoveRx KINOMEscan
Description: as §1, §2

ULK1 = target: T20, ULK1 (Homo sapiens, UniProt O75385)
T20 construct: purchased DiscoveRx KINOMEscan
Description: as §1, §2

DYRK1A = DYRK1A (Homo sapiens, UniProt Q13627); settings: read-out: % Retention on Solid Support
Description: as §1, §2

[4] = target: T21, ABL1(F317L)-phosphorylated (Homo sapiens, UniProt P00519, F317L); settings: 1 µM i-CDK9; read-out: % Retention on Solid Support
T21 construct: purchased DiscoveRx KINOMEscan
Description: as §1, §2

PRKD3 = target: T22, PRKD3 (Homo sapiens, UniProt O94806); settings: read-out: % Retention on Solid Support
T22 construct: purchased DiscoveRx KINOMEscan
Description: as §1, §2

T22 sequence (O94806 whole entry): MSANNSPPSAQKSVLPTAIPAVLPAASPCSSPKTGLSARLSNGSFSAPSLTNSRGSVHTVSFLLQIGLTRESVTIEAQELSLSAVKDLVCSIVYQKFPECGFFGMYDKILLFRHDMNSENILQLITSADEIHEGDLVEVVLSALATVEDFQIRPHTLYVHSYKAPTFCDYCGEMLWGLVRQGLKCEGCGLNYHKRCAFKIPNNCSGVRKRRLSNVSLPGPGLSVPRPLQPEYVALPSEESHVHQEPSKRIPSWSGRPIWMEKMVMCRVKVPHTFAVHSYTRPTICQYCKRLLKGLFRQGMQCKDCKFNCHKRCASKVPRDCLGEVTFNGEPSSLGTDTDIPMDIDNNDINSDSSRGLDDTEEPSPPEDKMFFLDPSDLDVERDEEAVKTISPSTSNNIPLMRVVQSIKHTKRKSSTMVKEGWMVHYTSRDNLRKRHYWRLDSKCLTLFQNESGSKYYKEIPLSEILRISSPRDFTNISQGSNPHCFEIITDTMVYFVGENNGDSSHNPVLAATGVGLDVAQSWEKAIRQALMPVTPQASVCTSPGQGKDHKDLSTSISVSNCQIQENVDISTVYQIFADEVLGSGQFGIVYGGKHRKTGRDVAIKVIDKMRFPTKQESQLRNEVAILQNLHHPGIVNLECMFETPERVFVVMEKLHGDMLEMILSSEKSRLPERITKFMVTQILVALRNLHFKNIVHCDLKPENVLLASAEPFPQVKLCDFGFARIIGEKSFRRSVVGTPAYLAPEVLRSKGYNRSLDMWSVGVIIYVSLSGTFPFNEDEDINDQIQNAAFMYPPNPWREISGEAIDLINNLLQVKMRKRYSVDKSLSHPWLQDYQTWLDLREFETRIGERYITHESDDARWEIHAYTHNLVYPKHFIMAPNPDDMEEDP
Sequence of RPS6KA5(Kin.Dom.2-C-terminal) (O75582 388-802 limits assumed): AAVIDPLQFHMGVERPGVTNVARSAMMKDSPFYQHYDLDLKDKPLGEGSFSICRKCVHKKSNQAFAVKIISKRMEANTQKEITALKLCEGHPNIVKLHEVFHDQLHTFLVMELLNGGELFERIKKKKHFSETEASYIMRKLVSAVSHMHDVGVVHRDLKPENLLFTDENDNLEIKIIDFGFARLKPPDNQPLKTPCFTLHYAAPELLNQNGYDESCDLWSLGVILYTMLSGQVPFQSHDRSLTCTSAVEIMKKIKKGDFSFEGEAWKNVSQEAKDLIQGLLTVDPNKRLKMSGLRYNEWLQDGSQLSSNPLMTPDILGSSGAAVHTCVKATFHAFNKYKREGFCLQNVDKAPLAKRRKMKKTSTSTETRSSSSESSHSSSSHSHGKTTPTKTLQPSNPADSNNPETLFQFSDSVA
T10 sequence (Q14680 whole entry): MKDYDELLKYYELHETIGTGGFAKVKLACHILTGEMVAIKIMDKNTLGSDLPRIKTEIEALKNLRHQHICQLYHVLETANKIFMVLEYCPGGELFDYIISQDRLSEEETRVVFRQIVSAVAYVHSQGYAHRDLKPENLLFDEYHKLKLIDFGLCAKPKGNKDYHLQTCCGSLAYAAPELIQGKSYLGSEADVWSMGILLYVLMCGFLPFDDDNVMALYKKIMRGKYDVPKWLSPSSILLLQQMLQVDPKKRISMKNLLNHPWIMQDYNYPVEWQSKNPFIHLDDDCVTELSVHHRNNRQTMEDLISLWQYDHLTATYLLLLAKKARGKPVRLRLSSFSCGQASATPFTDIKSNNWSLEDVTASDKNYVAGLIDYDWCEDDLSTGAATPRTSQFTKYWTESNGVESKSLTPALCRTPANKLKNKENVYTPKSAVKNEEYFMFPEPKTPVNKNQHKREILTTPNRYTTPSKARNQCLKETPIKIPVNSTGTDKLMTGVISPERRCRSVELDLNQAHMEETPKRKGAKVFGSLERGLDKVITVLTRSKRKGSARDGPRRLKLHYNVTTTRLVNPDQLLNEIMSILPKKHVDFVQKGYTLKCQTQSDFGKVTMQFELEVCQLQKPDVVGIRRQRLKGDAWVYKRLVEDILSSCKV
T14 sequence (Q9UKI8 whole entry): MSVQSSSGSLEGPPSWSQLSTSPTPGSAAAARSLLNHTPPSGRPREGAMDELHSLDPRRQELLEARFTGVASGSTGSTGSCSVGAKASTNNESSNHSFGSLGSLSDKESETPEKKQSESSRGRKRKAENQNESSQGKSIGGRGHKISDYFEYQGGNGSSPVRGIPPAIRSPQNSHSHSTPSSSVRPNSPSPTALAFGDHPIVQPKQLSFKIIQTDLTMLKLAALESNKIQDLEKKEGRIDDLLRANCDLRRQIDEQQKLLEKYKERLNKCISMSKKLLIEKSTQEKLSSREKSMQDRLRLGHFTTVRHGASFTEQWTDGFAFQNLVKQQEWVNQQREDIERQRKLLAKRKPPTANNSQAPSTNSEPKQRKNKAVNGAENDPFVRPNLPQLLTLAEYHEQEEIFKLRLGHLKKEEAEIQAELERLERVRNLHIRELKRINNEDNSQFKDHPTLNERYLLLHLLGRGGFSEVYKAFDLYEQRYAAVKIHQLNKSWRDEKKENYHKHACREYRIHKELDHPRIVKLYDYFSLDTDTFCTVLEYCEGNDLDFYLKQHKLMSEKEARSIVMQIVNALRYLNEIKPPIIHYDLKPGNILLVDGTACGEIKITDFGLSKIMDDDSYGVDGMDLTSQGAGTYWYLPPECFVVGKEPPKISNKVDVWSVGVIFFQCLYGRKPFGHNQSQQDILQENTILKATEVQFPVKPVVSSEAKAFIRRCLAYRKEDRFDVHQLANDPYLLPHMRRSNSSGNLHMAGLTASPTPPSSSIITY
T1 sequence (P42680 whole entry): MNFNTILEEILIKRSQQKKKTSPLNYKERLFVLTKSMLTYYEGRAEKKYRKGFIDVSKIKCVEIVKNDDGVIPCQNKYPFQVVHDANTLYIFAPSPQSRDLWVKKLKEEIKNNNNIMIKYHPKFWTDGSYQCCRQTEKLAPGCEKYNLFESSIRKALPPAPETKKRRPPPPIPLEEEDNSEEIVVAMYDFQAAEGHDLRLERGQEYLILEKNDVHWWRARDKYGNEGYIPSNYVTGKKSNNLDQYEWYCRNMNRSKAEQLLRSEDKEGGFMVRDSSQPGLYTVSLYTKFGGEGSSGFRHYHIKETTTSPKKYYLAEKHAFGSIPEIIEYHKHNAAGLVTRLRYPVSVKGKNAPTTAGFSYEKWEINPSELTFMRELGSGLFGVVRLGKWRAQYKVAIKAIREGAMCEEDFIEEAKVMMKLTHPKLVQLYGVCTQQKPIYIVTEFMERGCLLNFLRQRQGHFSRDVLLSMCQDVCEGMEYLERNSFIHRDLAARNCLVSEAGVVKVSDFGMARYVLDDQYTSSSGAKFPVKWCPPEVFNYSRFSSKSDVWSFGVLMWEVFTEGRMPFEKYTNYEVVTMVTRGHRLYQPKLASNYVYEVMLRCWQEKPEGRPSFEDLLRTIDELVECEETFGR
T3 sequence (O95835 whole entry): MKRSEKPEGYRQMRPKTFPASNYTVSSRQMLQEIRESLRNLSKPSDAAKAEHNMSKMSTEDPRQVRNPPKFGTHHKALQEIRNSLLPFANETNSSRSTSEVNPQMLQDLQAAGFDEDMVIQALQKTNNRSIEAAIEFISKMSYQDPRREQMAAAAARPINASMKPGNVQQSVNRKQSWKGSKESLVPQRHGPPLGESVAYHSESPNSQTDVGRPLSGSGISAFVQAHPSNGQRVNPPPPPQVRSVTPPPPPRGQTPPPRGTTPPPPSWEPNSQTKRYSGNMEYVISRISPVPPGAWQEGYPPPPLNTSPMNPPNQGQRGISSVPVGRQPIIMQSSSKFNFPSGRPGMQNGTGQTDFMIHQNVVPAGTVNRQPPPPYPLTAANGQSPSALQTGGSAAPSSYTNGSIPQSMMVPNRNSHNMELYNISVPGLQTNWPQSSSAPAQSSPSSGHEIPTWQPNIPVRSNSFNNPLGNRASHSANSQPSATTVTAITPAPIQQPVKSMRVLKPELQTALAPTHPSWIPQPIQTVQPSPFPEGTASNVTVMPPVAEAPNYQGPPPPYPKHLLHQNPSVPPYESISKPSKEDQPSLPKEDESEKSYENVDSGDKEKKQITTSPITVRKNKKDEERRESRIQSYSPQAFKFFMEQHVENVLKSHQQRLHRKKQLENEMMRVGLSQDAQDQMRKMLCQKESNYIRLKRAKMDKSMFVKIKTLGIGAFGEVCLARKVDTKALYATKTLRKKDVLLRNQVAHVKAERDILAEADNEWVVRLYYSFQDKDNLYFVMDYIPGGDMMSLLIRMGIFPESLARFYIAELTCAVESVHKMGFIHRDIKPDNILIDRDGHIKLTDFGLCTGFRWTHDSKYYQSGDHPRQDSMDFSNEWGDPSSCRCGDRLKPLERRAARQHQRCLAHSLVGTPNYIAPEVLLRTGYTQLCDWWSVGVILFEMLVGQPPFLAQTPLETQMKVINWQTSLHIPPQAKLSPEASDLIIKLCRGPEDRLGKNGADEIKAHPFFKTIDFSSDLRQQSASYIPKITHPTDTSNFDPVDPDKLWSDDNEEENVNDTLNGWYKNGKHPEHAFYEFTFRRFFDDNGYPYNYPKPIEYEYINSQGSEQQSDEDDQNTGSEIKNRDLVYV
T11 sequence (P45983 whole entry): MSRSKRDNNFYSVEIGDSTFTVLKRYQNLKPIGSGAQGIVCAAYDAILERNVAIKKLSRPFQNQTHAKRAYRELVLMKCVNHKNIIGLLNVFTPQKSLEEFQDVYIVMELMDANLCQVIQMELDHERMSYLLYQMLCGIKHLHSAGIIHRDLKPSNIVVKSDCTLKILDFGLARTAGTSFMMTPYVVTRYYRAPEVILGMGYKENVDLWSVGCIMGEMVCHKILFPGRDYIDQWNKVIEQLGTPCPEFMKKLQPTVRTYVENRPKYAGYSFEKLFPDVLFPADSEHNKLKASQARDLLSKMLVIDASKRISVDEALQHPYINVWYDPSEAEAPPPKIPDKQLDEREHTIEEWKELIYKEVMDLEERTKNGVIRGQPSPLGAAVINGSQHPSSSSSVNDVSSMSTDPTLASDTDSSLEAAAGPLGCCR

## N[C@H]1CC[C@H](Nc2cc(-c3cccc(NCc4cccc(F)c4)n3)c(Cl)cn2)CC1 [i-CDK9, N2′-(trans-4-aminocyclohexyl)-5′-chloro-N6-(3-fluorobenzyl)-2,4′-bipyridine-2′,6-diamine]
TEC; 1 µM i-CDK9
  remaining binding at 1 µM: 99%
TEC; 10 µM i-CDK9
  remaining binding at 10 µM: 100%
MARK4; 1 µM i-CDK9
  % Retention on Solid Support: 100%
MARK4; 10 µM i-CDK9
  % Retention on Solid Support: 100%
LATS1; 1 µM i-CDK9
  remaining binding at 1 µM: 100%
LATS1; 10 µM i-CDK9
  remaining binding at 10 µM: 100%
YANK1
  remaining binding at 1 µM: 100%
CSNK1A1L; 1 µM i-CDK9
  remaining binding at 1 µM: 97%
CSNK1A1L; 10 µM i-CDK9
  remaining binding at 10 µM: 100%
TNNI3K; 1 µM i-CDK9
  remaining binding at 1 µM: 81%
TNNI3K; 10 µM i-CDK9
  remaining binding at 10 µM: 100%
PCTK2; 1 µM i-CDK9
  remaining binding at 1 µM: 14%
PCTK2; 10 µM i-CDK9
  remaining binding at 10 µM: 0.05%
CAMK4; 1 µM i-CDK9
  remaining binding at 1 µM: 78%
CAMK4; 10 µM i-CDK9
  remaining binding at 10 µM: 100%
MAPKAPK5; 1 µM i-CDK9
  remaining binding at 1 µM: 100%
MAPKAPK5; 10 µM i-CDK9
  remaining binding at 10 µM: 94%
[1]; 1 µM i-CDK9
  remaining binding at 1 µM: 100%
[1]; 10 µM i-CDK9
  remaining binding at 10 µM: 74%
MELK; 1 µM i-CDK9
  remaining binding at 1 µM: 100%
MELK; 10 µM i-CDK9
  remaining binding at 10 µM: 95%
JNK1; 1 µM i-CDK9
  % Retention on Solid Support: 80%
JNK1; 10 µM i-CDK9
  % Retention on Solid Support: 34%
AXL; 1 µM i-CDK9
  remaining binding at 1 µM: 89%
AXL; 10 µM i-CDK9
  remaining binding at 10 µM: 80%
MARK3; 1 µM i-CDK9
  remaining binding at 1 µM: 94%
MARK3; 10 µM i-CDK9
  remaining binding at 10 µM: 71%
TLK1; 1 µM i-CDK9
  remaining binding at 1 µM: 62%
TLK1; 10 µM i-CDK9
  remaining binding at 10 µM: 95%
PRKCI
  remaining binding at 1 µM: 100%
[2]
  remaining binding at 1 µM: 92%
PFTAIRE2; 1 µM i-CDK9
  remaining binding at 1 µM: 72%
PFTAIRE2; 10 µM i-CDK9
  remaining binding at 10 µM: 13%
[3]; 1 µM i-CDK9
  remaining binding at 1 µM: 100%
[3]; 10 µM i-CDK9
  remaining binding at 10 µM: 100%
BMPR2; 1 µM i-CDK9
  % Retention on Solid Support: 100%
BMPR2; 10 µM i-CDK9
  % Retention on Solid Support: 100%
KIT(V559D); 1 µM i-CDK9
  remaining binding at 1 µM: 88%
KIT(V559D); 10 µM i-CDK9
  remaining binding at 10 µM: 90%
ULK1; 1 µM i-CDK9
  % Retention on Solid Support: 80%
ULK1; 10 µM i-CDK9
  % Retention on Solid Support: 79%
DYRK1A; 1 µM i-CDK9
  remaining binding at 1 µM: 1.3%
DYRK1A; 10 µM i-CDK9
  remaining binding at 10 µM: 0%
[4]
  remaining binding at 1 µM: 100%
PRKD3; 1 µM i-CDK9
  remaining binding at 1 µM: 73%
PRKD3; 10 µM i-CDK9
  remaining binding at 10 µM: 14%
